Source: patent publication EP0808325B1, “[…] […] SERIES FOR […] GABA RECEPTOR” (priority 1994, dated 1996)

Assays:
mice [1] = assay: loss-of-righting reflex (anesthetic activity); format: in vivo; design: unit not given here; settings: iv
Procedure: The compounds of and used in the invention can also be used for anesthetic indications at high doses. However, the preferred route of administration to induce anesthesia is intravenous (i.v.) administration. In animals, a drug's anesthetic properties is measured by the drug's ability to produce a loss-of-righting reflex. The loss-of-righting reflex is defined as the inability of an animal to right itself within 30 seconds when placed on its back. Mice were administered drug i.v. in the lateral tail vein. Following administration, mice were placed on their backs and observed for loss-of-righting reflex.

GR complex = assay: modulation of [35S]TBPS binding in rat cerebral cortex P2 homogenate; design: species or system Sprague-Dawley rats; IMAX: unit not given here; settings: for IC50: concentration of compounds to inhibit 50% of control [35S]TBPS binding, 2 nM [35S]TBPS, 25°C, 90 minutes; for IMAX: maximum inhibition of [35S]TBPS binding, I* = Inactive
Procedure, shortened: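 Rat (male Sprague-Dawley) cortical P2 homogenate, 0.5 mg protein, in 50 mM Na/K phosphate pH 7.4, 200 mM NaCl, incubated 90 min at 25° C with 2 nM [35S]TBPS plus GABA and (+)bicuculline, compounds added in DMSO. Filter-bound radioactivity counted; nonspecific binding defined with […].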

[2] = system: metrazol induced convulsions; assay: animal or person; format: in vivo, mice; settings: IP, 10 mg/kg
mice [3] = assay: elevated plus-maze; format: in vivo, N.I.H. Swiss-Webster mice; settings: IP
Text: The theoretical basis for the elevated plus-maze test is similar to that of the light/dark transition test. As described by Pellow et al., J. Neurosci. Meth 14:149-167 (1985), the elevated plus-maze apparatus is designed to utilize the mice's natural aversion to open spaces. The apparatus consists of two open-arms and two enclosed-arms. The elevated plus-maze test allows for two measures of anxiety, the number of entries into the open-arms and the time spent on the open-arms, both expressed as a percentage of the total number of entries and time spent in/on both the open-arms and enclosed-arms.
Male N.I.H. Swiss-Webster mice (Harlan, Indianapolis, IN) weighing 15-20 g were housed four per cage in polyethylene cages with sawdust bedding. The colony room was environmentally controlled (22°C) with a 12 hr light/dark cycle (0600-1800 hr). Food and water were available ad libitum, except during testing. The experiments were run from 0700-1500 hr and groups were counterbalanced for time of day effects. Mice were only administered drug or vehicle once.
The method used was previously described (Lister, Psychopharmacol. 92:180-185 (1987)). The apparatus included two open arms perpendicular to two enclosed arms elevated 50 cm from the floor. Each arm was 50 cm long and the walls of the enclosed arms were 40 cm tall. The maze was made completely of black plexiglass. Incandescent 200 W light bulbs were above each of the open arms to produce a strong contrast between the open arms and the enclosed arms.
Ten minutes after an injection, the N.I.H. Swiss-Webster mice were placed in the center of the plus-maze facing an open arm. During the 5 min test period, the number of entries onto the open arms and the enclosed arms, and the time spent in the open arms and enclosed arms were measured. All four paws had to be within an arm for the dependent variable to be measured. Therefore, the time spent in the center of the maze is not counted, so the total time spent in the open arms and the enclosed arms may not equal 5 min. […]

rats = assay: Geller-Seifter conflict test; format: in vivo, Sprague-Dawley rats
Text: This animal model of human anxiety utilizes a conditioned state of conflict in rats to ascertain the anxiolytic properties of drugs. Rats are conditioned to bar press for positive reinforcement under two schedules of behavior (Geller and Seifter, Psychopharmacologia 1:482-492 (1960)). The first includes bar pressing under a […] schedule without punishment. The second component is a fixed ratio schedule with each bar press resulting in a positive reinforcement and a punishment. The punished component produces a state of conflict within the animal. […] An anxiolytic response would increase the punished responding without affecting the unpunished responding.
Male albino Sprague-Dawley rats (Charles River Labs, Wilmington, MA) weighing 250-300 g were used for conflict experiments and were kept on a restricted diet of Purina Lab Chow food pellets with water available at all times to maintain body weight at 85% of their free-feeding young adult levels. Rats were housed individually under a 12-hour light-dark cycle with lights on from 0700-1900.
The anti-anxiety (punishment-lessening) and response depressant effects of […] and […] were measured in rats by the conflict test of Geller and Seifter (1960). In this 63-min test, hungry rats perform a lever-press response to obtain a sweetened milk reward. The reinforcement schedule consists of punishment and nonpunishment components, alternating approximately every 15 min. Rats were trained in test chambers (Coulbourn instruments) with a lever mounted in one wall, a small dipper that delivered the 0.1-mL milk reward (1 part Eagle condensed : milk 2 parts water), and a metal grid floor through which the foot-shock punishment was administered. A DEC PDP 11/73 minicomputer running SKED (State Systems) was used for programming and recording.
Rates initially learned to respond on a continuous reinforcement schedule and progressed rapidly to 30-sec, 1-min, and 2-min variable interval (VI) schedules. On the continuous reinforcement schedule, rats received milk reward following every lever press; on the VI schedules, milk rewards were available at infrequent and variable intervals, eventually at an average of once every 2 min. Four 3-min "conflict" periods were then introduced on the unpunished VI baseline; the first started after 3 min of VI performance and the others were alternated between 12-min periods of VI responding. During conflict periods, which were signalled by the presentation of a light and a tone, the continuous reinforcement schedule was again in force and each lever press delivered both a milk reward and a brief ([…]) foot-shock punishment. Shock intensity was 0.2 mA initially, and.was increased daily in increments of 0.02 mA in order to gradually suppress lever pressing to 5 responses or less per conflict period. This training took 4-6 weeks, after which stable low rates of response were observed during conflict periods and stable high rates in the nonpunishment periods. Drug-induced increases in the rate of punished responses were taken as an index of antianxiety activity, while decreases in the rate of unpunished responses were taken as an index of response depression or sedation.

[4] = 50% hpbcd, 10 minutes prior to metrazol (85 mg/kg)

For `COC=C1CCC2C3CCC4CC(O)CCC4C3CCC12C` (stereo not drawn) [3α-Hydroxy-17(20)(Z)-methoxytnethylene-19-nor-5α-androstane], the “Loss-of-Righting Reflex” value (mice [1]; micronizing solution, 5 mg/kg) was 75.

With `C#C[C@@]1(O)CC[C@@]2(C)[C@H](CC[C@@H]3[C@@H]2CC[C@]2(C)[C@@H](C(=O)CO)CC[C@@H]32)C1` [3α,21-Dihydroxy-3β-ethynyl-5β-pregnan-20-one] the IC50 (GR complex; no unit printed) was 216 nM, the IMAX (GR complex) was 104 and the “% Protected” value [2, 4] was 18.8%. The “% Control” value (mice [3]; 50% hpbcd, 10 mg/kg) was 162% and the “Loss-of-Righting Reflex” value (mice [1]; 20% cremophor, 10 mg/kg) was 100.

In the case of `C[C@]12CC[C@H]3[C@@H](CC[C@@H]4C[C@@](O)(C(F)(F)F)CC[C@@H]43)[C@@H]1CC[C@@H]2C(=O)COC(=O)CCC(=O)[O-].[Na+]` [3α,21-dihydroxy-3β-trifluoromethyl-19-nor-5β-pregnan-20-one, 21-hemisuccinate, sodium salt], the IC50 (GR complex; no unit printed) is reported as 530 nM, the IMAX (GR complex) is reported as 101 and the “% Protected” value ([2]; water) is reported as 50%. The “% Control” value (mice [3]; water, 20 mg/kg) was 161.1% and the “Geller/Seifter (% of control)” value (rats; po, water, 8 mg/kg) was 2493.4 % of control.

With `C[C@]12CC[C@](O)(C(F)(F)F)C[C@H]1CC[C@@H]1[C@@H]2CC[C@]2(C)[C@@H](C(=O)CO)CC[C@@H]12` [3α,21 Dihydroxy-3β-trifluoromethyl-5β-pregnan-20-one] the IC50 (GR complex; no unit printed) was 354 nM, the IMAX (GR complex) was 102 and the “% Protected” value [2, 4] was 50%. For the same molecule, the “% Control” value (mice [3]; 50% hpbcd, 10 mg/kg) was 237% and the “Geller/Seifter (% of control)” value (rats; sc, 50% hpbcd, 16 mg/kg) was 982.4 % of control.

`CC(=O)[C@H]1CC[C@H]2[C@@H]3CC[C@@H]4C[C@@](O)(C(F)(F)F)CC[C@]4(C)[C@H]3CC[C@]12C` [3α-Hydroxy-3β-trifluoromethyl-5β-pregnan-20-one] was tested, and the IC50 (GR complex; no unit printed) was 211 nM, the IMAX (GR complex) was 98 and the “% Protected” value [2, 4] was 62.5%. For the same molecule, the “% Control” value (mice [3]; 50% hpbcd, 20 mg/kg) was 197.6% and the “Geller/Seifter (% of control)” value (rats; sc, 50% hpbcd, 4 mg/kg) was 663.2 % of control.

In the case of `COCCC(=O)[C@H]1CC[C@H]2[C@@H]3CC[C@H]4C[C@](C)(O)CC[C@]4(C)[C@H]3CC[C@]12C` [3α-Hydroxy-3β-methyl-21-methoxymethyl-5α-pregnan-20-one], the “Loss-of-Righting Reflex” value (mice [1]; micronizing solution, 20 mg/kg) is reported as 100.

With `C#C[C@@]1(O)CC[C@@]2(C)[C@H](CC[C@@H]3[C@@H]2CC[C@]2(C)[C@@H](C(C)=O)CC[C@@H]32)C1` [3β-ethynyl-3α-hydroxy-5β-pregnan-20-one, 3β-Ethynyl-3α-hydroxy-5β-pregnan-20-one] the IC50 (GR complex; no unit printed) was 39 nM, the IMAX (GR complex) was 101 and the “% Protected” value [2, 4] was 100%. The “% Control” value (mice [3]; 50% hpbcd, 1 mg/kg) was 186.6%, the “Geller/Seifter (% of control)” value (rats; sc, 50% hpbcd, 2 mg/kg) was 751.1 % of control and the “Loss-of-Righting Reflex” value (mice [1]; 10% hpbcd, 30 mg/kg) was 100.

For `CC(=O)C1=CC[C@H]2[C@@H]3CC[C@H]4C[C@](C)(O)CC[C@]4(C)[C@H]3CC[C@]12C` [3α-Hydroxy-3β-methyl-5α-pregn-16-en-20-one], the “Loss-of-Righting Reflex” value (mice [1]; micronizing solution, 50 mg/kg) was 100.

`CC(=O)[C@H]1CC[C@H]2[C@@H]3CC[C@@H]4C[C@@](O)(C#CCl)CC[C@]4(C)[C@H]3CC[C@]12C` [3β-(Chloroethynyl)-3α-hydroxy-5β-prognan-20-one] was tested, and the “Loss-of-Righting Reflex” value (mice [1]; micronizing solution, 20 mg/kg) was 100.

For `CCO[C@H]1C[C@@]2(C)[C@@H](CC[C@@H]3[C@@H]2CC[C@]2(C)[C@@H](C(C)=O)CC[C@@H]32)C[C@@H]1O` [2β-Ethoxy-3α-hydroxy-5α-pregnan-20-one], the “Loss-of-Righting Reflex” value (mice [1]; 20% cremophor, 5 mg/kg) was 100.

With `C=C[C@@]1(O)CC[C@@]2(C)[C@@H](CC[C@@H]3[C@@H]2CC[C@]2(C)[C@@H](C(C)=O)CC[C@@H]32)C1` [3β-ethenyl-3α-hydroxy-5α-pregnan-20-one, 3β-Ethenyl-3α-hydroxy-5α-pregnan-20-one] the IC50 (GR complex; no unit printed) was 113 nM, the IMAX (GR complex) was 88 and the “% Protected” value [2, 4] was 100%. For the same molecule, the “% Control” value (mice [3]; 50% hpbcd, 5 mg/kg) was 154.3% and the “Geller/Seifter (% of control)” value (rats; po, 50% hpbcd, 12 mg/kg) was 1092.3 % of control.

`C[C@]12CC[C@](O)(C(F)(F)F)C[C@H]1CC[C@@H]1[C@@H]2CC[C@]2(C)[C@@H](C(=O)COC(=O)CCC(=O)[O-])CC[C@@H]12.[Na+]` [3α,21-Dihydroxy-3β-trifluoromethyl-5β-pregnan-20-one, 21-hemisuccinate, sodium salt] was tested, and the IC50 (GR complex; unit inferred, sodium salt) was 712 nM, the IMAX (GR complex) was 99 and the “% Protected” value ([2]; water) was 62.5%. For the same molecule, the “% Control” value (mice [3]; water, 20 mg/kg) was 172.8% and the “Geller/Seifter (% of control)” value (rats; po, water, 8 mg/kg) was 840.0 % of control.

With `CC(=O)[C@H]1CC[C@H]2[C@@H]3CC[C@H]4C[C@H](O)[C@@H](F)C[C@]4(C)[C@H]3CC[C@]12C` [2β-Fluoro-3α-hydroxy-5α-pregnan-20-one] the “Loss-of-Righting Reflex” value (mice [1]; micronizing solution, 5 mg/kg) was 100.

`C#C[C@@]1(O)CC[C@@]2(C)[C@@H](CC[C@@H]3[C@@H]2CC[C@]2(C)[C@@H](C(C)=O)CC[C@@H]32)C1` [3α-hydroxy-3β-ethynyl-5α-pregnan-20-one, 3β-Ethynyl-3α-hydroxy-5α-pregnan-20-one] was tested, and the IC50 (GR complex; no unit printed) was 53 nM, the IMAX (GR complex) was 91 and the “% Protected” value [2, 4] was 87.5%. For the same molecule, the “% Control” value (mice [3]; 50% hpbcd, 10 mg/kg) was 213% and the “Geller/Seifter (% of control)” value (rats; sc, 50% hpbcd, 8 mg/kg) was 830.2 % of control.

`CC(=O)[C@H]1CC[C@H]2[C@@H]3CC[C@@H]4C[C@](C)(O)CC[C@]4(C)[C@H]3CC[C@]12C` [3α-hydroxy-3β-methyl-5β-pregnan-20-one] was tested, and the IC50 (GR complex; no unit printed) was 37 nM, the IMAX (GR complex) was 98 and the “% Protected” value ([2]; micro soln.) was 70%. The “Loss-of-Righting Reflex” value (mice [1]; micronizing solution, 2.5 mg/kg) was 100.

In the case of `CC(=O)[C@H]1CC[C@H]2[C@@H]3CC[C@H]4C[C@H](O)CC[C@]4(C)C3=CC[C@]12C` [3α-Hydroxy-5α-pregn-9-en-20-one], the “Loss-of-Righting Reflex” value (mice [1]; micronizing solution, 10 mg/kg) is reported as 100.
